Converted amounts (≈) assume the structure as drawn. Counter-ions that a name gives are not always drawn. Like-named read-outs stand apart in the source and are kept apart here. Where a SMILES comes first, the peptide text is derived from it. [ ]: non-standard residue; d: D form. d2Nal = N[C@H](Cc1ccc2ccccc2c1)C(=O)O; Aib = CC(C)(N)C(=O)O
Test: Solubility as a function of pH / solubility in pure water
Format: physicochemical
Protocol: The solubility of ipamorelin free base at different pH values is shown graphically in FIG. 1. At pH values less than approximately 10, the drug is very soluble in aqueous media (>100 mg/ml).
This dramatic change in solubility around pH 10 is reflected in the solubilities of ipamorelin free base and its diacetate salt in pure water. The diacetate salt dissolves readily: it is capable of producing solutions greater than 100 mg/ml, with a final pH of about 7.5. The free base is much less soluble; only about 1.5 mg/ml was measured in a saturated solution, pH=9.83. However, solutions of much higher concentration can be achieved by simply adjusting the pH to around neutrality, using a solution of HCl or a similar acid.

Row | Structure (SMILES) | solubility (pH 7.5, pure water, final pH of about 7.5, read-out: solubility in pure water) [mg/mL] | solubility (aqueous media, pH values less than approximately 10, read-out: solubility in aqueous media) [mg/mL] | solubility (pure water, saturated solution, pH=9.83, read-out: solubility in pure water (saturated solution)) [mg/mL]
1 | CC(C)(N)C(=O)N[C@@H](Cc1c[nH]cn1)C(=O)N[C@H](Cc1ccc2ccccc2c1)C(=O)N[C@H](Cc1ccccc1)C(=O)N[C@@H](CCCCN)C(N)=O [diacetate salt] (H-[Aib]H[d2Nal][dF]K-NH2) | > 100 |  | 
2 | CC(C)(N)C(=O)N[C@@H](Cc1c[nH]cn1)C(=O)N[C@H](Cc1ccc2ccccc2c1)C(=O)N[C@H](Cc1ccccc1)C(=O)N[C@@H](CCCCN)C(N)=O [ipamorelin free base, α-Methylalanine-L-histidine-D-β-(2-naphthyl)-alanine-D-phenylalanine-L-lysinamide] (H-[Aib]H[d2Nal][dF]K-NH2) |  | > 100 | ~1.5 (≈ 2110 µM)

— patent publication US20100317581A1, “Ipamorelin Diacetate Injection and Infusion Solutions” (Helsinn Therapeutics (U.S.), Inc., priority 2009, published 2010)
